Patent publication US12378224B2 (Dong-A Socio Holdings Co., Ltd., priority 2016, dated 2025)

molecular target: human MER (528-end) (Homo sapiens (Human), UniProt Q12866); experiment: HTRF Kinase Activity Biochemical Assay (KinEASE-TK); details: 10 uM ATP
Method in brief: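 Activity read-out is the HTRF ratio (665 nm over 620 nm emission, ×10,000; excitation 340 nm) after 1 h detection with 0.375 nM Eu3+-cryptate anti-TK antibody plus 0.062 uM SA-XL665. Preceding kinase step: human MER (528-end), biotinylated TK substrate, 1 h, room temperature.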

human MER (528-end), sequence (Q12866 528-999 limits assumed): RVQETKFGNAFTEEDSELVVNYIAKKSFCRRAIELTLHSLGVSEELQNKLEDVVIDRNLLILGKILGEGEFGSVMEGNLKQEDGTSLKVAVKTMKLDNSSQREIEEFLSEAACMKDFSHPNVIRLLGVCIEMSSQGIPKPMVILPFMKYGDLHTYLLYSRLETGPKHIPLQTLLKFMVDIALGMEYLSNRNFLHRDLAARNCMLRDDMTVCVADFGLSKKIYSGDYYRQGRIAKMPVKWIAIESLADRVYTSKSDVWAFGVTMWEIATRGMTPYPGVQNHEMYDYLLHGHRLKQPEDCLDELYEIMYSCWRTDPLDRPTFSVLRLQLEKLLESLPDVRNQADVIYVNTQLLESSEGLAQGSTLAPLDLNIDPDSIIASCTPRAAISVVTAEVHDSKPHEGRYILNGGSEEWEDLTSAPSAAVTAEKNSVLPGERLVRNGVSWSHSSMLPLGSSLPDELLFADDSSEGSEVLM

IC50 [nM] | Structure (SMILES)
> 1000 | Cn1cc(-c2cnc(N)c(C(=O)N[C@@H]3CCN(C(=O)/C=C/c4ccc(CN5CCN(CCO)CC5)cc4)C3)c2)cn1 [Example 430, (R,E)-2-amino-N-(1-(3-(4-((4-(2-hydroxyethyl)piperazin-1-yl)methyl)phenyl)acryloyl)pyrrolidin-3-yl)-5-(1-methyl-1H-pyrazol-4-yl)nicotinamide]
> 1000 | CN1CCN(Cc2ccc(-c3ccc(/C=C/C(=O)N4CC[C@@H](NC(=O)c5cc(-c6cnn(C)c6)cnc5N)C4)cc3)cc2)CC1 [Example 432, (R,E)-2-amino-5-(1-methyl-1H-pyrazol-4-yl)-N-(1-(3-(4′-((4-methylpiperazin-1-yl)methyl)-[1,1′-biphenyl]-4-yl)acryloyl)pyrrolidin-3-yl)nicotinamide]
> 1000 | CN1CCN(Cc2ccc(-c3cccc4c(C(=O)N5CC[C@@H](NC(=O)c6cc(-c7cnn(C)c7)cnc6N)C5)cccc34)cc2)CC1 [Example 443, (R)-2-amino-5-(1-methyl-1H-pyrazol-4-yl)-N-(1-(5-(4-((4-methylpiperazin-1-yl)methyl)phenyl)-1-naphthoyl)pyrrolidin-3-yl)nicotinamide]
> 1000 | Cn1cc(-c2cnc(N)c(C(=O)N[C@@H]3CCN(C(=O)c4cccc5c(-c6ccc(CN7CCC[C@@H]7CO)cc6)cccc45)C3)c2)cn1 [Example 444]
> 1000 | CN1CCN(Cc2ccc(Oc3cccc(C(=O)N4CC[C@@H](NC(=O)c5cc(-c6cnn(C)c6)cnc5N)C4)c3)cc2)CC1 [Example 446, (R)-2-amino-5-(1-methyl-1H-pyrazol-4-yl)-N-(1-(3-(4-((4-methylpiperazin-1-yl)methyl)phenoxy)benzoyl)pyrrolidin-3-yl)nicotinamide]
> 1000 | CN1CCN(Cc2ccc(Oc3ccc(C(=O)N4CC[C@@H](NC(=O)c5cc(-c6cnn(C)c6)cnc5N)C4)cc3)cc2)CC1 [Example 448, (R)-2-amino-5-(1-methyl-1H-pyrazol-4-yl)-N-(1-(4-(4-((4-methylpiperazin-1-yl)methyl)phenoxy)benzoyl)pyrrolidin-3-yl)nicotinamide]
> 1000 | Cn1cc(-c2cnc(N)c(C(=O)N[C@@H]3CCN(C(=O)c4ccc(Oc5ccc(CN6CCC[C@@H]6CO)cc5)cc4)C3)c2)cn1 [Example 449]
> 1000 | Cn1cc(-c2cnc(N)c(C(=O)N[C@@H]3CCN(C(=O)c4cccc(-c5cnn(C6CCNCC6)c5)c4)C3)c2)cn1 [Example 451, (R)-2-amino-5-(1-methyl-1H-pyrazol-4-yl)-N-(1-(3-(1-(piperidin-4-yl)-1H-pyrazol-4-yl)benzoyl)pyrrolidin-3-yl)nicotinamide]
> 1000 | CN1CCN(C(=O)Cc2ccc(-c3cccc(C(=O)N4CC[C@@H](NC(=O)c5cc(-c6cnn(C)c6)cnc5N)C4)c3)cc2)CC1 [Example 454, (R)-2-amino-5-(1-methyl-1H-pyrazol-4-yl)-N-(1-(4′-(2-(4-methylpiperazin-1-yl)-2-oxoethyl)-[1,1′-biphenyl]-3-carbonyl)pyrrolidin-3-yl)nicotinamide]
> 1000 | Cn1cc(-c2cnc(N)c(C(=O)N[C@@H]3CCN(C(=O)c4cccc(-c5cccc(C(=O)O)c5)c4)C3)c2)cn1 [Example 456, (R)-3′-(3-(2-amino-5-(1-methyl-1H-pyrazol-4-yl)nicotinamido)pyrrolidine-1-carbonyl)-[1,1′-biphenyl]-3-carboxylic acid]
> 1000 | Cn1cc(-c2cnc(N)c(C(=O)N[C@@H]3CCN(C(=O)c4nc(-c5ccccc5)oc4C(F)(F)F)C3)c2)cn1 [Example 458, (R)-2-amino-5-(1-methyl-1H-pyrazol-4-yl)-N-(1-(2-phenyl-5-(trifluoromethyl)oxazole-4-carbonyl)pyrrolidin-3-yl)nicotinamide]
> 1000 | Cn1cc(-c2cnc(N)c(C(=O)N[C@@H]3CCN(C(=O)c4cccc(-c5cccc(Cn6cccn6)c5)c4)C3)c2)cn1 [Example 459, (R)—N-(1-(3′-((1H-pyrazol-1-yl)methyl)-[1,1′-biphenyl]-3-carbonyl)pyrrolidin-3-yl)-2-amino-5-(1-methyl-1H-pyrazol-4-yl)nicotinamide]
> 1000 | Cn1cc(-c2cnc(N)c(C(=O)N[C@@H]3CCN(C(=O)c4cccc(-c5cccc(Cn6ccnc6)c5)c4)C3)c2)cn1 [Example 460, (R)—N-(1-(3′-((1H-imidazol-1-yl)methyl)-[1,1′-biphenyl]-3-carbonyl)pyrrolidin-3-yl)-2-amino-5-(1-methyl-1H-pyrazol-4-yl)nicotinamide]
> 1000 | Cn1cc(-c2cnc(N)c(C(=O)N[C@@H]3CCN(C(=O)c4cccc(-c5cccc(CN6CCOCC6)c5)c4)C3)c2)cn1 [Example 461, (R)-2-amino-5-(1-methyl-1H-pyrazol-4-yl)-N-(1-(3′-(morpholinomethyl)-[1,1′-biphenyl]-3-carbonyl)pyrrolidin-3-yl)nicotinamide]
> 1000 | Cn1cc(-c2cnc(N)c(C(=O)N[C@@H]3CCN(C(=O)c4cccc(-c5cccc(C(=O)N6CCSCC6)c5)c4)C3)c2)cn1 [Example 463, (R)-2-amino-5-(1-methyl-1H-pyrazol-4-yl)-N-(1-(3′-(thiomorpholine-4-carbonyl)-[1,1′-biphenyl]-3-carbonyl)pyrrolidin-3-yl)nicotinamide]
> 1000 | Cn1cc(-c2cnc(N)c(C(=O)N[C@@H]3CCN(C(=O)c4cccc(-c5cccc(C(=O)N6CCNCC6)c5)c4)C3)c2)cn1 [Example 464, (R)-2-amino-5-(1-methyl-1H-pyrazol-4-yl)-N-(1-(3′-(piperazine-1-carbonyl)-[1,1′-biphenyl]-3-carbonyl)pyrrolidin-3-yl)nicotinamide]

Second part, the compound before the results:

Structure (SMILES) | IC50 [nM]
Cn1cc(-c2cnc(N)c(C(=O)N[C@@H]3CCN(C(=O)/C=C/c4cccc(Br)c4)C3)c2)cn1 [Example 428, (R,E)-2-amino-N-(1-(3-(3-bromophenyl)acryloyl)pyrrolidin-3-yl)-5-(1-methyl-1H-pyrazol-4-yl)nicotinamide] | > 1000
CN1CCN(Cc2ccc(/C=C/C(=O)N3CC[C@@H](NC(=O)c4cc(-c5cnn(C)c5)cnc4N)C3)cc2)CC1 [Example 429, (R,E)-2-amino-5-(1-methyl-1H-pyrazol-4-yl)-N-(1-(3-(4-((4-methylpiperazin-1-yl)methyl)phenyl)acryloyl)pyrrolidin-3-yl)nicotinamide] | 100 to 1000
COc1ccccc1CC(=O)N1CC[C@@H](NC(=O)c2cc(-c3cnn(C)c3)cnc2N)C1 [Example 436, (R)-2-amino-N-(1-(2-(2-methoxyphenyl)acetyl)pyrrolidin-3-yl)-5-(1-methyl-1H-pyrazol-4-yl)nicotinamide] | > 1000
Cn1cc(-c2cnc(N)c(C(=O)N[C@@H]3CCN(C(=O)c4ccccc4)C3)c2)cn1 [Example 438, (R)-2-amino-N-(1-benzoylpyrrolidin-3-yl)-5-(1-methyl-1H-pyrazol-4-yl)nicotinamide] | > 1000
CC(NCc1ccc(-c2cccc3c(C(=O)N4CC[C@@H](NC(=O)c5cc(-c6cnn(C)c6)cnc5N)C4)cccc23)cc1)C1CCN(C)CC1 (some centres unmarked) [Example 445] | > 1000
Cn1cc(-c2cnc(N)c(C(=O)N[C@@H]3CCN(C(=O)c4cccc(Oc5ccc(CN6CCC[C@@H]6CO)cc5)c4)C3)c2)cn1 [Example 447, 2-amino-N—((R)-1-(3-(4-(((R)-2-(hydroxymethyl)pyrrolidin-1-yl)methyl)phenoxy)benzoyl)pyrrolidin-3-yl)-5-(1-methyl-1H-pyrazol-4-yl)nicotinamide] | > 1000
Cn1cc(-c2cnc(N)c(C(=O)N[C@@H]3CCN(C(=O)c4cccc(-c5ccccc5)c4)C3)c2)cn1 [Example 450, (R)—N-(1-([1,1′-biphenyl]-3-carbonyl)pyrrolidin-3-yl)-2-amino-5-(1-methyl-1H-pyrazol-4-yl)nicotinamide] | > 1000
CN1CCN(C(=O)Cc2cccc(-c3cccc(C(=O)N4CC[C@@H](NC(=O)c5cc(-c6cnn(C)c6)cnc5N)C4)c3)c2)CC1 [Example 452, (R)-2-amino-5-(1-methyl-1H-pyrazol-4-yl)-N-(1-(3′-(2-(4-methylpiperazin-1-yl)-2-oxoethyl)-[1,1′-biphenyl]-3-carbonyl)pyrrolidin-3-yl)nicotinamide] | > 1000
CN1CCN(CCc2ccc(-c3cccc(C(=O)N4CC[C@@H](NC(=O)c5cc(-c6cnn(C)c6)cnc5N)C4)c3)cc2)CC1 [Example 455, (R)-2-amino-5-(1-methyl-1H-pyrazol-4-yl)-N-(1-(4′-(2-(4-methylpiperazin-1-yl)ethyl)-[1,1′-biphenyl]-3-carbonyl)pyrrolidin-3-yl)nicotinamide] | > 1000
Cn1cc(-c2cnc(N)c(C(=O)N[C@@H]3CCN(C(=O)c4cccc(-c5ccc(C(=O)N6CCNCC6)cc5)c4)C3)c2)cn1 [Example 465, (R)-2-amino-5-(1-methyl-1H-pyrazol-4-yl)-N-(1-(4′-(piperazine-1-carbonyl)-[1,1′-biphenyl]-3-carbonyl)pyrrolidin-3-yl)nicotinamide] | > 1000
Cn1cc(-c2cnc(N)c(C(=O)N[C@@H]3CCN(C(=O)c4ccc(-c5cccc(C(=O)N6CCNCC6)c5)cc4)C3)c2)cn1 [Example 466, (R)-2-amino-5-(1-methyl-1H-pyrazol-4-yl)-N-(1-(3′-(piperazine-1-carbonyl)-[1,1′-biphenyl]-4-carbonyl)pyrrolidin-3-yl)nicotinamide] | 100 to 1000
Cn1cc(-c2cnc(N)c(C(=O)N[C@@H]3CCN(C(=O)c4ccc(-c5ccc(C(=O)N6CCNCC6)cc5)cc4)C3)c2)cn1 [Example 467, (R)-2-amino-5-(1-methyl-1H-pyrazol-4-yl)-N-(1-(4′-(piperazine-1-carbonyl)-[1,1′-biphenyl]-4-carbonyl)pyrrolidin-3-yl)nicotinamide] | > 1000
Cc1nn(C)cc1-c1cccc(C(=O)N2CC[C@@H](NC(=O)c3cc(-c4cnn(C)c4)cnc3N)C2)c1 [Example 469, (R)-2-amino-N-(1-(3-(1,3-dimethyl-1H-pyrazol-4-yl)benzoyl)pyrrolidin-3-yl)-5-(1-methyl-1H-pyrazol-4-yl)nicotinamide] | > 1000
